Assay results as given in patent publication US20030040476A1, “EAG gene” (priority 1999, published 2003).

Legend:
[1] = biological target: T1, hEAG2 channel (Homo sapiens, UniProt Q8NCM2); experiment: Magnesium dependence of hEAG2 activation, two-electrode voltage clamp in Xenopus oocytes; type: cell-based
T1 construct: expressed in transfected cells; host or cells: Xenopus oocytes (stage V-VI), injected with synthetic RNA
T1 sequence (Q8NCM2 1-988): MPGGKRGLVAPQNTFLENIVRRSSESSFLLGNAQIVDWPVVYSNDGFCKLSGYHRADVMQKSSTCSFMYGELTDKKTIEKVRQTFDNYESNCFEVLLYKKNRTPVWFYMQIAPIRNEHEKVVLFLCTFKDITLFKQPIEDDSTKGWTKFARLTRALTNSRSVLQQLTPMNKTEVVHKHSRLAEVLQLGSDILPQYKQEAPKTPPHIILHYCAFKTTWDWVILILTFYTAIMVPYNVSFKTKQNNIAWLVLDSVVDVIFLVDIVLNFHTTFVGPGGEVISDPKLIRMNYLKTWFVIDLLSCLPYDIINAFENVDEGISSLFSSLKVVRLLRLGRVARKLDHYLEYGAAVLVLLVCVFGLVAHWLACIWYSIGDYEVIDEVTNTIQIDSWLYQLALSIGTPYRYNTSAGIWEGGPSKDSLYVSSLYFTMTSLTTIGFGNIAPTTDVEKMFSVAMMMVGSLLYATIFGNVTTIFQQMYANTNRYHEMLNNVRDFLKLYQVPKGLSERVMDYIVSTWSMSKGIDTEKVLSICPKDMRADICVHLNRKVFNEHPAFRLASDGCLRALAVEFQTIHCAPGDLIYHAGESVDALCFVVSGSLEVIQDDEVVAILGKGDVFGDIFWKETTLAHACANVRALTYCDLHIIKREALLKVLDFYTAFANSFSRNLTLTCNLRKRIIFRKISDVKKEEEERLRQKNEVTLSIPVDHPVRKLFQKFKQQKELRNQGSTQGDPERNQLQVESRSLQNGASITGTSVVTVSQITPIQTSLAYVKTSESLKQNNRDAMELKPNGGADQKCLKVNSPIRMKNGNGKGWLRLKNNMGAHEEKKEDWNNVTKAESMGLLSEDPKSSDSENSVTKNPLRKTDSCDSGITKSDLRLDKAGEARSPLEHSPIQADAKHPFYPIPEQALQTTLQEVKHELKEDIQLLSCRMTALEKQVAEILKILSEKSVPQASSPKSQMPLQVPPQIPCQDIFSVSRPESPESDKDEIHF
Procedure: (§1) For Xenopus oocyte expression, the cDNA was cloned into a suitable vector containing the translation initiation sequences and the polyadenylation sequence of Xenopus b-globin. This optimizes the expression in oocytes. The template was prepared by linearization of the construct, and RNA was synthesized using the T7 promotor. The synthetic RNA was injected into stage V-VI oocytes using standard techniques (approximately 50 ng/oocyte). The currents expressed were then measured 48-96 hours after the injection using two-electrode voltage clamp.
The depencence on the holding potential of the time constant of activation was determined using a conditioning potential between −150 and −60 mV during 5 s prior to the test pulse. The time required to achieve 80% of the maximal amplitude in the test pulse was then plotted against the conditioned potential, and fitted with a Boltzmann distribution. Extracellular magnesium is known to slow down the activation of EAG1. We determined the magnesium dependence of hEAG2 using the protocol descibed above in the presence of different external magnesium concentrations. The value of Vhalf obtained from the fit was plotted against the magnesium concentration, giving a semimaximal effect of extracellular magnesium at 80 μM (FIG. 7).

[2] = test system: hEAG2 channel; experiment: Modulation of hEAG2 current during progesterone-induced G2-M progression in Xenopus oocytes; type: cell-based, human; conditions: oocytes treated with 20 μg/ml progesterone while recording; homogenous at all voltages tested
Procedure: as §1
The modulation of hEAG2 during cell cycle was determined using the natural cell cycle arrest of oocytes in the G2 stage of the first meiotic division. The progression of the cycle through the G2-M boundary is triggered by progesterone. We have treated the oocytes with 20 μg/ml progesterone while recording the hEAG2 currents. […] Importantly, the reduction was homogenous at all voltages tested (as opposite to what happens with EAG1).

| EC50 ([1]; hEAG2 in Xenopus oocytes, conditioning potential -150 to -60 mV for 5 s before test pulse, extracellular magnesium, read-out: apparent EC50 for the effect of magnesium (Vhalf of activation time versus Mg^2+ concentration)) | slowing of activation in 2 mM Mg^2+ versus 200 μM Mg^2+ ([1]; prepulse potential -60 mV, 2 mM versus 200 μM Mg^2+) | Compound | effect on hEAG2 current amplitude [2] |
| --- | --- | --- | --- |
| 80 µM | three times slower | [Mg+2] [magnesium] |  |
|  |  | CC(=O)[C@H]1CC[C@H]2[C@@H]3CCC4=CC(=O)CC[C@]4(C)[C@H]3CC[C@]12C [progesterone] | reduction of the current with time |
